According to US8562669B2, “Methods of application of coatings composed of hydrophobic, high glass transition polymers with tunable drug release rates” (Abbott Cardiovascular Systems Inc., priority 2008, dated 2013):

Test: Cumulative drug release at 24 hours from coated stents (USP type 7 tester, porcine serum)
Format: physicochemical
Conditions: stent coating of everolimus and 75:25 PLGA
Procedure: As used herein, any measurement of drug release, for example without limitation, release rate, release duration, or substantially released, refers to the an in-vitro measurement using a United States Pharmacopeia Type VII apparatus, using porcine serum with sodium azide optionally added (0.1% w/v) at a temperature of 37° C.
All stents were cleaned by being sonicated in isopropyl alcohol. Stents were coated with a primer layer of approximately 51 μg of 75:25 PLGA (poly(D,L-lactide-co-glycolide) provided by Boehringer Ingelheim, grade RG755S) by spraying from a solution of 2 weight % polymer in 90:10 acetone:methyl isobutyl ketone (w/w). More than one pass under the coater was required to obtain the target weight of polymer on the stent. The spraying operation was carried out with a custom made spray coater equipped with a spray nozzle, a drying nozzle, and a means to rotate and translate the stent under the nozzles with the processing parameters outlined in Table 1. Subsequent to coating, all stents were baked in a forced air convection oven at 140° C. for 30 minutes. […] More than one pass under the coater was required to obtain the target weight of polymer on the stent. The spraying operation was carried out with the same coater used for the primer spraying with the following parameters outlined in Table 2. After the drug layer coating, the stents were baked in a force air convection oven at 50° C. for 1 hour. After baking the coating, the stents were crimped onto 3.0×12 mm XIENCE V catheters, placed in protective tubular coils, and then sealed in Argon filled foil pouches. The stents were not sterilized. Cumulative release of the drug everolimus at 24 hours was determined using a United States Pharmacopeia type 7 tester in porcine serum with sodium azide 0.1% (w/v) added as the dissolution media. Everolimus released into solution was determined by HPLC analysis on the amount of drug remaining on the stent. The cumulative release expressed is one minus the fractional amount of drug remaining divided by the theoretical quantity or dose of drug per stent. In this experiment, the same drug to polymer ratio and the same polymer and drug were used but the spray coating was accomplished with different solvents. In one set of stents, the solvent was 100% acetone while for other stents the solvent was a 50:50 (w/w) mixture of acetone and methyl isobutyl ketone. The cumulative release as measured of drug after 24 hours for n=3 stents is illustrated in FIG. 1.
Stents were cleaned, coated with a primer of 75/25 PLGA, and then coated with a drug layer as described in Example 1 except that the drug to polymer ratio was 1:2 (and therefore the % solids in the coating solution was 3% (w/w)). […]

CO[C@H]1C[C@@H]2CC[C@@H](C)[C@@](O)(O2)C(=O)C(=O)N2CCCC[C@H]2C(=O)O[C@H]([C@H](C)C[C@@H]2CC[C@@H](OCCO)[C@H](OC)C2)CC(=O)[C@H](C)/C=C(\C)[C@@H](O)[C@@H](OC)C(=O)[C@H](C)C[C@H](C)/C=C/C=C/C=C/1C [everolimus]
cumulative release at 24 hours (drug:polymer 1:1, sprayed from 50:50 (w/w) acetone:methyl isobutyl ketone, 37° C.): about 96% | cumulative release at 24 hours (drug:polymer 1:1, sprayed from 100% acetone, 37° C.): about 23% | cumulative release at 24 hours (drug:polymer 1:2 as printed, sprayed from 50:50 (w/w) acetone:dimethyl acetamide): about 42% | cumulative release at 24 hours (drug:polymer 1:2 as printed, sprayed from 50:50 acetone:methyl isobutyl ketone): about 83%
